Data from patent US20050170966A1, “Surfactants and surfactant compositions” (priority 2002, published 2005).

Tests used:
Assay type in all cases: in vivo
pea = assay: Field trial of glyphosate formulations with adjuvant; conditions: 6 DAT, glyphosate 1080 g(a.e).ha^-1, adjuvant 405 g.ha^-1
Experimental: (§1) In this Example, adjuvants of the invention (SE2), plus TAE1 as control, were tested in field trials in formulations including glyphosate (isopropylamine salt) as a herbicide on flax, pea, Savoy cabbage (Sav C) and Italian ryegrass (It R) as target crops. The application rate was 1080 g(a.e).ha^−1, with adjuvant at an application rate of 405 g.ha^−1 (75% of the normal application rate for adjuvants in such formulations of 540 g.ha^−1). The effectiveness of the formulations was by visual assessment of Growth Reduction (Gr Red) and Chlorosis/Necrosis (Chlor) 6 DAT with the values being reported in % (related to an untreated control=0% effect).

flax = assay: as above; conditions: 6 DAT, glyphosate 1080 g(a.e).ha^-1, adjuvant 405 g.ha^-1
Experimental: as §1

Italian ryegrass = assay: as above; conditions: It R; 6 DAT; glyphosate 1080 g(a.e).ha^-1, adjuvant 405 g.ha^-1
Experimental: as §1

Savoy cabbage = assay: as above; conditions: Sav C; 6 DAT; glyphosate 1080 g(a.e).ha^-1, adjuvant 405 g.ha^-1
Experimental: as §1

[1] = tested on: Agropyron repens (couch grass); assay: Adjuvants for Glyphosate, test plots, visual score
Experimental: (§2) In this Example the effect of compounds of the invention as adjuvants for Glyphosate as a herbicide against the species Agropyron repens (couch grass) and Abutilon theophrasti (velvetleaf) using FAE1 as a control adjuvant was tested. Test plots were treated by spraying (spray volume 200 l.ha^−1) at varying doses of glyphosate; 180 and 360 g(a.e.).ha^−1 for A. repens and 250 and 500 g(active).ha^−1 for A. theophrasti and ratios of glyphosate to adjuvant (8:1,4:1 and 2:1 by weight). The effect of the herbicide formulations was assessed by visual comparison with untreated control blocks 6, 13 and 19 days after treatment (DAT), scoring as percentages with 0=no effect and 100=complete kill. The results are set out in Table 2 below

[2] = tested on: Abutilon theophrasti (velvetleaf); assay: Adjuvants for Glyphosate, test plots, visual score
Experimental: as §2

[3] = tested on: Couchgrass (Agropyron repens); assay: Greenhouse trial of adjuvant with glyphosate; conditions: for % kill: 7 DAT; for % fresh wt 22 days (foliage): 22 DAT
Description: (§3) This Example goves the results of greenhouse trials to investigate the adjuvant properties of compound SE2, with a fatty amine ethoxylate (FAE1) for comparitison, used in combination with glyphosate (isopropylamine salt?) as a herbicide against Couchgrass (Agropyron repens) and Bindweed (Convolvulus arvensis). Glyphosate doses of 180, 360 and 540 g(a.e.).ha^−1 were used against A. repens and 540, 810 and 1080 g(a.e.).ha^−1 against C. arvensis. The spray volume was 200 l.ha^−1 and ratios of glyphosate (active ingredient) to adjuvant of 2:0.75 (37.5%); 2:0.5 (25%); 2:0.25 (12.5%) and 2:0.1 (5%) (percentage figres in brackets are by weight adjuvant based on glyphosate a.e.) were tested. Weed kill was visually assessed 7, 14 and 21 days after treatment (DAT) and the % fresh weight of foliage was determined 22 and 33 DAT for A. repens and C. arvensis respectively. The % kill results at 7 DAT are set out in Table 3a and the % fresh weight of foliage determined 22 and 33 DAT is reported in Table 3b below. The % fresh weight of foliage is determined 22 and 33 DAT for A. repens and C. arvensis respectively and the results are included in Table 3b below: […]

[4] = tested on: Bindweed (Convolvulus arvensis); assay: Greenhouse trial of adjuvant with glyphosate; conditions: for % kill: 7 DAT; for % fresh wt 33 days (foliage): 33 DAT
Description: as §3

## 1-[Bis-(2-hydroxyethyl)-amino]-2-hydroxypropane-3-(Alc1 15-ethoxylate) [SE2]
pea
  Chlor (%) Chlorosis/Necrosis: 80%
  Gr Red (%) Growth Reduction: 55%
flax
  Chlor (%) Chlorosis/Necrosis: 50%
  Gr Red (%) Growth Reduction: 30%
Italian ryegrass
  Chlor (%) Chlorosis/Necrosis: 50%
Savoy cabbage
  Chlor (%) Chlorosis/Necrosis: 40%
[1]; glyphosate 180 g.ha^-1, ratio 2:1, 6 DAT
  visual herbicide effect score: 17.9%
[1]; glyphosate 180 g.ha^-1, ratio 2:1, 13 DAT
  visual herbicide effect score: 46.4%
[1]; glyphosate 180 g.ha^-1, ratio 2:1, 19 DAT
  visual herbicide effect score: 82.1%
[1]; glyphosate 180 g.ha^-1, ratio 4:1, 6 DAT
  visual herbicide effect score: 17.9%
[1]; glyphosate 180 g.ha^-1, ratio 4:1, 13 DAT
  visual herbicide effect score: 39.3%
[1]; glyphosate 180 g.ha^-1, ratio 4:1, 19 DAT
  visual herbicide effect score: 60%
[1]; glyphosate 180 g.ha^-1, ratio 8:1, 6 DAT
  visual herbicide effect score: 25%
[1]; glyphosate 180 g.ha^-1, ratio 8:1, 13 DAT
  visual herbicide effect score: 32.1%
[1]; glyphosate 180 g.ha^-1, ratio 8:1, 19 DAT
  visual herbicide effect score: 50%
[1]; glyphosate 360 g.ha^-1, ratio 2:1, 6 DAT
  visual herbicide effect score: 32.1%
[1]; glyphosate 360 g.ha^-1, ratio 2:1, 13 DAT
  visual herbicide effect score: 60.7%
[1]; glyphosate 360 g.ha^-1, ratio 2:1, 19 DAT
  visual herbicide effect score: 100%
[1]; glyphosate 360 g.ha^-1, ratio 4:1, 6 DAT
  visual herbicide effect score: 25%
[1]; glyphosate 360 g.ha^-1, ratio 4:1, 13 DAT
  visual herbicide effect score: 50%
[1]; glyphosate 360 g.ha^-1, ratio 4:1, 19 DAT
  visual herbicide effect score: 92.9%
[1]; glyphosate 360 g.ha^-1, ratio 8:1, 6 DAT
  visual herbicide effect score: 25%
[1]; glyphosate 360 g.ha^-1, ratio 8:1, 13 DAT
  visual herbicide effect score: 46.4%
[1]; glyphosate 360 g.ha^-1, ratio 8:1, 19 DAT
  visual herbicide effect score: 78.6%
[2]; glyphosate 250 g.ha^-1, ratio 2:1, 6 DAT
  visual herbicide effect score: 25%
[2]; glyphosate 250 g.ha^-1, ratio 2:1, 13 DAT
  visual herbicide effect score: 32.1%
[2]; glyphosate 250 g.ha^-1, ratio 2:1, 19 DAT
  visual herbicide effect score: 42.9%
[2]; glyphosate 250 g.ha^-1, ratio 4:1, 6 DAT
  visual herbicide effect score: 17.9%
[2]; glyphosate 250 g.ha^-1, ratio 4:1, 13 DAT
  visual herbicide effect score: 28.6%
[2]; glyphosate 250 g.ha^-1, ratio 4:1, 19 DAT
  visual herbicide effect score: 35.7%
[2]; glyphosate 250 g.ha^-1, ratio 8:1, 6 DAT
  visual herbicide effect score: 21.4%
[2]; glyphosate 250 g.ha^-1, ratio 8:1, 13 DAT
  visual herbicide effect score: 28.6%
[2]; glyphosate 250 g.ha^-1, ratio 8:1, 19 DAT
  visual herbicide effect score: 42.9%
[2]; glyphosate 500 g.ha^-1, ratio 2:1, 6 DAT
  visual herbicide effect score: 28.6%
[2]; glyphosate 500 g.ha^-1, ratio 4:1, 6 DAT
  visual herbicide effect score: 28.6%
[2]; glyphosate 500 g.ha^-1, ratio 8:1, 6 DAT
  visual herbicide effect score: 25%
[2]; glyphosate 500 g.ha^-1, ratio 8:1, 13 DAT
  visual herbicide effect score: 50%
[2]; glyphosate 500 g.ha^-1, ratio 8:1, 19 DAT
  visual herbicide effect score: 53.6%
[3]; Gly 180, Adj 5% Gly
  % kill: 17.86%
[3]; Gly 180, Adj 12.5% Gly
  % kill: 17.86%
[3]; Gly 180, Adj 25% Gly
  % kill: 21.43%
[3]; Gly 180, Adj 37.5% Gly
  % kill: 21.43%
[3]; Gly 360, Adj 5% Gly
  % kill: 14.29%
[3]; Gly 360, Adj 12.5% Gly
  % kill: 28.57%
[3]; Gly 360, Adj 25% Gly
  % kill: 32.14%
[3]; Gly 360, Adj 37.5% Gly
  % kill: 25%
[3]; Gly 540, Adj 5% Gly
  % kill: 28.57%
[3]; Gly 540, Adj 12.5% Gly
  % kill: 25%
[3]; Gly 540, Adj 25% Gly
  % kill: 35.71%
[3]; Gly 540, Adj 37.5% Gly
  % kill: 39.29%
[3]; Gly 180, 5 wt % adjuvant
  % fresh wt 22 days (foliage): 95.49%
[3]; Gly 180, 12.5 wt % adjuvant
  % fresh wt 22 days (foliage): 59.81%
[3]; Gly 180, 25 wt % adjuvant
  % fresh wt 22 days (foliage): 48.07%
[3]; Gly 180, 37.5 wt % adjuvant
  % fresh wt 22 days (foliage): 53.01%
[3]; Gly 360, 5 wt % adjuvant
  % fresh wt 22 days (foliage): 63.31%
[3]; Gly 360, 12.5 wt % adjuvant
  % fresh wt 22 days (foliage): 35.66%
[3]; Gly 360, 25 wt % adjuvant
  % fresh wt 22 days (foliage): 29.69%
[3]; Gly 360, 37.5 wt % adjuvant
  % fresh wt 22 days (foliage): 40.02%
[3]; Gly 540, 5 wt % adjuvant
  % fresh wt 22 days (foliage): 23.83%
[3]; Gly 540, 12.5 wt % adjuvant
  % fresh wt 22 days (foliage): 19.63%
[3]; Gly 540, 25 wt % adjuvant
  % fresh wt 22 days (foliage): 19.6%
[3]; Gly 540, 37.5 wt % adjuvant
  % fresh wt 22 days (foliage): 18.36%
[4]; Gly 540, Adj 5% Gly
  % kill: 14.29%
[4]; Gly 540, Adj 12.5% Gly
  % kill: 14.29%
[4]; Gly 540, Adj 25% Gly
  % kill: 14.29%
[4]; Gly 540, Adj 37.5% Gly
  % kill: 14.29%
[4]; Gly 810, Adj 5% Gly
  % kill: 14.29%
[4]; Gly 810, Adj 12.5% Gly
  % kill: 17.86%
[4]; Gly 810, Adj 25% Gly
  % kill: 14.29%
[4]; Gly 810, Adj 37.5% Gly
  % kill: 14.29%
[4]; Gly 1080, Adj 5% Gly
  % kill: 14.29%
[4]; Gly 1080, Adj 12.5% Gly
  % kill: 14.29%
[4]; Gly 1080, Adj 25% Gly
  % kill: 14.29%
[4]; Gly 1080, Adj 37.5% Gly
  % kill: 14.29%
[4]; Gly 540, 5 wt % adjuvant
  % fresh wt 33 days (foliage): 54.61%
[4]; Gly 540, 12.5 wt % adjuvant
  % fresh wt 33 days (foliage): 54.21%
[4]; Gly 540, 25 wt % adjuvant
  % fresh wt 33 days (foliage): 54.97%
[4]; Gly 540, 37.5 wt % adjuvant
  % fresh wt 33 days (foliage): 53.73%
[4]; Gly 810, 5 wt % adjuvant
  % fresh wt 33 days (foliage): 53.91%
[4]; Gly 810, 12.5 wt % adjuvant
  % fresh wt 33 days (foliage): 62.03%
[4]; Gly 810, 25 wt % adjuvant
  % fresh wt 33 days (foliage): 52.01%
[4]; Gly 810, 37.5 wt % adjuvant
  % fresh wt 33 days (foliage): 55.38%
[4]; Gly 1080, 5 wt % adjuvant
  % fresh wt 33 days (foliage): 50.55%
[4]; Gly 1080, 12.5 wt % adjuvant
  % fresh wt 33 days (foliage): 53.29%
[4]; Gly 1080, 25 wt % adjuvant
  % fresh wt 33 days (foliage): 46.2%
[4]; Gly 1080, 37.5 wt % adjuvant
  % fresh wt 33 days (foliage): 43.89%
